{"source": "paper PMC6478823", "about": "“A suite of phenotypic assays to ensure pipeline diversity when prioritizing drug-like Cryptosporidium growth inhibitors” (Nature Communications, 2019)", "key": {"[1]": {"test_system": "HCT-8 cell DNA replication", "experiment": "Host cell DNA replication (EdU labeling)", "type": "cell-based, human", "settings": "10 mM, positive control"}, "C. parvum": {"test_system": "C. parvum", "experiment": "DNA replication assay (EdU incorporation)", "type": "cell-based, Cryptosporidium parvum", "settings": "10 mM, positive control", "from_the_text": "Following cell invasion, Cryptosporidium trophozoites grow and multiply to give rise to multinucleated type I meronts (Fig. 3a). The thymidine analog 5-ethynyl-2′-deoxyuridine (EdU) is efficiently incorporated into newly synthesized DNA, and can be detected using click chemistry. We used EdU to measure parasite intracellular DNA replication, as a surrogate for the more complex phenotype of intracellular growth and division. The approach for differentially labeling newly synthesized parasite DNA compared to host cell DNA was to take advantage of the fact that C. parvum replicates more quickly than the nearly confluent host cells. Thus, by adding EdU shortly before egress, it was possible to preferentially label replicating parasites (Fig. 3b, c). DNA staining with Hoechst labeled all of the host and parasite DNA, making it challenging to visualize and quantify parasite DNA. A simple DNA stain would also not distinguish pre-existing DNA from newly synthesized DNA (Fig. 3c). In contrast, EdU labeling only occurred with incorporation into newly synthesized DNA. Incorporated EdU was then easily stained for immunofluorescence and labeled parasites were quantified using high-content microscopy and an NIH ImageJ macro (Fig. 3c, DMSO condition). The […] hydroxyurea (10 mM), a known inhibitor of DNA replication, was used as a positive control for assay validation. […] Compounds with activity in this assay cannot be concluded to specifically target DNA replication, which is a complex phenotype.\nConfluent HCT-8 cell monolayers in glass bottom plates were infected with C. parvum, and compounds were added at EC90 following invasion. At 9 h post-infection, 10 µM EdU was added, followed by incubation for another 2 h, and then washing, fixing, and staining for microscopy. […] 40 × dry objective (NA = 0.7); scale = 5 µm. Arrows indicate selected parasites with EdU-labeled DNA. d Quantification of EdU incorporation. […] Data are mean and SD of 2–5 biological replicates.\nAfter incubation of cells with EdU for 2 h, cells were washed 3 times with PBS-D-gal and then fixed with PBS containing 4% PFA. Cells were then permeabilized and stained for EdU using the Click-iT® assay kit (Thermo Fisher Scientific, catalog# C10340) as per the manufacturer’s instructions. Cells were then imaged by focusing on parasites (note that the host cell nuclei are in a different focal plane) using a 40 × dry objective (0.7 NA) and EdU, and lectin numbers quantified using ImageJ software and the custom macro in Supplementary Method 1."}}}
{"molecule": "NC(=O)NO", "note": "[hydroxyurea]", "values": [{"measurement": "effect on HCT-8 cell DNA replication", "setting": "[1]", "value": "blocked both parasite and HCT-8 cell DNA replication"}, {"measurement": "effect on parasite DNA replication", "setting": "C. parvum", "value": "blocked both parasite and HCT-8 cell DNA replication"}]}
